Reference: patent US20090291938A1 (TAKEDA PHARMACEUTICAL COMPANY LIMITED, priority 2007, published 2009)

Tested on: HT29 human colorectal adenocarcinoma cell line
Test: cell proliferation assay (Cell Titer-Glo luminescent cell viability assay)
Assay type: cell-based
Settings: HT-29, 72 h, read-out: pIC50 (converted)
Method: The cell culture and proliferation assay may be carried out as follows: the HT29 human colorectal adenocarcinoma cell line (ATCC, USA) was maintained in Dulbecco's Modified Eagle's Medium (Invitrogen, USA) supplemented with 10% fetal bovine serum (JRH, USA). The cell proliferation assay was carried out with the Cell Titer-Glo luminescent cell viability assay (Promega, USA) according to the manufacture's instruction after the 72 hr treatment of the cells in the presence of the compounds. The cell viability was shown as a percentage of DMSO treated cells.

SMILES	IC50 [nM]
CCC1(C)CN(C2CCCC2)c2nc(Nc3ccc(C(=O)NC4CCN(C)CC4)cc3OC)ncc2N(C)C1=O (stereo not drawn) [Compound 131, 4-(9-Cyclopentyl-7-ethyl-5,7-dimethyl-6-oxo-6,7,8,9-tetrahydro-5H-pyrimido[4,5-b][1,4]diazepin-2-ylamino)-3-methoxy-N-(1-methylpiperidin-4-yl)benzamide]	3.16 to 10

Same assay, conditions: HT-29, cell proliferative assay, HT29 cells, 72 hr treatment, values given as ranges, read-out: pIC50 (converted)

IC50 [nM]	SMILES
1 to 2.51	COc1cc(C(=O)NC2CCN(C(C)=O)CC2)ccc1Nc1ncc2c(n1)N(C1CCCC1)CC(C)(C)C(=O)N2C [Compound 90, N-(1-acetylpiperidin-4-yl)-4-(9-cyclopentyl-5,7,7-trimethyl-6-oxo-6,7,8,9-tetrahydro-5H-pyrimido[4,5-b][1,4]diazepin-2-ylamino)-3-methoxybenzamide]
> 10	C=C[C@@]1(C)CN(C2CCCC2)c2nc(Nc3ccc(C(=O)NN4CCN(C)CC4)cc3OC)ncc2N(C)C1=O [Compound 244, (S)-4-(9-cyclopentyl-5,7-dimethyl-6-oxo-7-vinyl-6,7,8,9-tetrahydro-5H-pyrimido[4,5-b][1,4]diazepin-2-ylamino)-3-methoxy-N-(4-methylpiperazin-1-yl)benzamide]
> 10	CNCCNC(=O)c1ccc(Nc2ncc3c(n2)N(C2CCCC2)CCC(=O)N3C)c(OC)c1 [Compound 59, 4-(9-cyclopentyl-5-methyl-6-oxo-6,7,8,9-tetrahydro-5H-pyrimido[4,5-b][1,4]diazepin-2-ylamino)-3-methoxy-N-(2-(methylamino)ethyl)benzamide]
3.16 to 10	CC[C@@]1(C)CN(C2CCCCC2)c2nc(Nc3ccc(C(=O)N[C@H]4CCCNC4)cc3OC)ncc2N(C)C1=O [Compound 149, 4-((S)-9-cyclohexyl-7-ethyl-5,7-dimethyl-6-oxo-6,7,8,9-tetrahydro-5H-pyrimido[4,5-b][1,4]diazepin-2-ylamino)-3-methoxy-N-((S)-piperidin-3-yl)benzamide]
1 to 2.51	C#CCC1CN(C2CCCC2)c2nc(Nc3ccc(C(=O)NC4CCN(C)CC4)cc3OC)ncc2N(C)C1=O (stereo not drawn) [Compound 209]
3.16 to 10	CC[C@@]1(C)CN(C2CCCC2)c2nc(Nc3ccc(C(=O)N[C@@H]4CCCNC4)cc3OC)ncc2N(C)C1=O [Compound 134, 4-((S)-9-cyclopentyl-7-ethyl-5,7-dimethyl-6-oxo-6,7,8,9-tetrahydro-5H-pyrimido[4,5-b][1,4]diazepin-2-ylamino)-3-methoxy-N-((R)-piperidin-3-yl)benzamide]
3.16 to 10	C=CCC1CN(C2CCCCC2)c2nc(Nc3ccc(C(=O)N[C@@H]4CCCNC4)cc3OC)ncc2N(C)C1=O (stereo partly drawn) [Compound 191, 4-(7-allyl-9-cyclohexyl-5-methyl-6-oxo-6,7,8,9-tetrahydro-5H-pyrimido[4,5-b][1,4]diazepin-2-ylamino)-3-methoxy-N-((R)-piperidin-3-yl)benzamide]
3.16 to 10	COc1cc(C(=O)NC2CCN(C)CC2)ccc1Nc1ncc2c(n1)N(C(C)C)CC(C)(C)C(=O)N2C [Compound 155, 4-(9-isopropyl-5,7,7-trimethyl-6-oxo-6,7,8,9-tetrahydro-5H-pyrimido[4,5-b][1,4]diazepin-2-ylamino)-3-methoxy-N-(1-methylpiperidin-4-yl)benzamide]
> 10	C=CC1(C)CN(C2CCCC2)c2nc(Nc3ccc(C(=O)NN4CCN(C)CC4)cc3OC)ncc2N(C)C1=O (stereo not drawn) [Compound 242, 4-(9-cyclopentyl-5,7-dimethyl-6-oxo-7-vinyl-6,7,8,9-tetrahydro-5H-pyrimido[4,5-b][1,4]diazepin-2-ylamino)-3-methoxy-N-(4-methylpiperazin-1-yl)benzamide]
3.16 to 10	CC[C@]1(C)CN(C2CCCCC2)c2nc(Nc3ccc(C(=O)N[C@H]4CCCNC4)cc3OC)ncc2N(C)C1=O [Compound 151, 4-((R)-9-cyclohexyl-7-ethyl-5,7-dimethyl-6-oxo-6,7,8,9-tetrahydro-5H-pyrimido[4,5-b][1,4]diazepin-2-ylamino)-3-methoxy-N-((S)-piperidin-3-yl)benzamide]
1 to 2.51	COc1cc(C(=O)N[C@H]2CCCNC2)ccc1Nc1ncc2c(n1)N(C1CCCC1)CC1(CC1)C(=O)N2C [Compound 166, (S)-4-(9′-cyclopentyl-5′-methyl-6′-oxo-5′,6′,8′,9′-tetrahydrospiro[cyclopropane-1,7′-pyrimido[4,5-b][1,4]diazepine]-2′-ylamino)-3-methoxy-N-(piperidin-3-yl)benzamide]
3.16 to 10	COc1cc(C(N)=O)ccc1Nc1ncc2c(n1)N(C1CCCC1)CC(C)(C)C(=O)N2C [Compound 107, 4-(9-cyclopentyl-5,7,7-trimethyl-6-oxo-6,7,8,9-tetrahydro-5H-pyrimido[4,5-b][1,4]diazepin-2-ylamino)-3-methoxybenzamide]

Continued, compound first:

SMILES	IC50 [nM]
COc1cc(C(=O)NCCCN2CCCC2=O)ccc1Nc1ncc2c(n1)N(C1CCCC1)CCC(=O)N2C [Compound 38, 4-(9-cyclopentyl-5-methyl-6-oxo-6,7,8,9-tetrahydro-5H-pyrimido[4,5-b][1,4]diazepin-2-ylamino)-3-methoxy-N-(3-(2-oxopyrrolidin-1-yl)propyl)benzamide]	3.16 to 10
COc1cc(C(=O)N[C@H]2CCN(C)C2)ccc1Nc1ncc2c(n1)N(C1CCCC1)CC(C)(C)C(=O)N2C [Compound 97, (S)-4-(9-cyclopentyl-5,7,7-trimethyl-6-oxo-6,7,8,9-tetrahydro-5H-pyrimido[4,5-b][1,4]diazepin-2-ylamino)-3-methoxy-N-(1-methylpyrrolidin-3-yl)benzamide]	1 to 2.51
CONC(=O)c1ccc(Nc2ncc3c(n2)N(C2CCCC2)CC(C)(C)C(=O)N3C)c(OC)c1 [Compound 102, 4-(9-cyclopentyl-5,7,7-trimethyl-6-oxo-6,7,8,9-tetrahydro-5H-pyrimido[4,5-b][1,4]diazepin-2-ylamino)-N,3-dimethoxybenzamide]	< 1
C=C[C@]1(C)CN(C2CCCC2)c2nc(Nc3ccc(C(=O)NC4CCN(C)CC4)cc3OC)ncc2N(C)C1=O [Compound 240, (R)-4-(9-cyclopentyl-5,7-dimethyl-6-oxo-7-vinyl-6,7,8,9-tetrahydro-5H-pyrimido[4,5-b][1,4]diazepin-2-ylamino)-3-methoxy-N-(1-methylpiperidin-4-yl)benzamide]	3.16 to 10
C=CC1(C)CN(C2CCCC2)c2nc(Nc3ccc(C(=O)NC4CCN(C)CC4)cc3OC)ncc2N(C)C1=O (stereo not drawn) [Compound 239, 4-(9-cyclopentyl-5,7-dimethyl-6-oxo-7-vinyl-6,7,8,9-tetrahydro-5H-pyrimido[4,5-b][1,4]diazepin-2-ylamino)-3-methoxy-N-(1-methylpiperidin-4-yl)benzamide]	3.16 to 10
COc1cc(C(=O)NC2CCOCC2)ccc1Nc1ncc2c(n1)N(C1CCCC1)CCC(=O)N2C [Compound 42, 4-(9-cyclopentyl-5-methyl-6-oxo-6,7,8,9-tetrahydro-5H-pyrimido[4,5-b][1,4]diazepin-2-ylamino)-3-methoxy-N-(tetrahydro-2H-pyran-4-yl)benzamide]	3.16 to 10
COc1cc(C(=O)N[C@@H]2CCCNC2)ccc1Nc1ncc2c(n1)N(C1CCCC1)CCC(=O)N2C [Compound 49, (R)-4-(9-cyclopentyl-5-methyl-6-oxo-6,7,8,9-tetrahydro-5H-pyrimido[4,5-b][1,4]diazepin-2-ylamino)-3-methoxy-N-(piperidin-3-yl)benzamide]	> 10
COc1cc(C(=O)NC2CCN(S(C)(=O)=O)CC2)ccc1Nc1ncc2c(n1)N(C1CCCC1)CC(C)(C)C(=O)N2C [Compound 91, 4-(9-cyclopentyl-5,7,7-trimethyl-6-oxo-6,7,8,9-tetrahydro-5H-pyrimido[4,5-b][1,4]diazepin-2-ylamino)-3-methoxy-N-(1-(methylsulfonyl)piperidin-4-yl)benzamide]	1 to 2.51
CC[C@@]1(C)CN(C2CCCC2)c2nc(Nc3ccc(C(=O)NC4CN(C)C4)cc3OC)ncc2N(C)C1=O [Compound 132, (S)-4-(9-cyclopentyl-7-ethyl-5,7-dimethyl-6-oxo-6,7,8,9-tetrahydro-5H-pyrimido[4,5-b][1,4]diazepin-2-ylamino)-3-methoxy-N-(1-methylazetidin-3-yl)benzamide]	3.16 to 10
COc1cc(C(=O)NC2CCN(C)CC2)ccc1Nc1ncc2c(n1)N(C1CCCCC1)CC1(CC1)C(=O)N2C [Compound 169, 4-(9′-cyclohexyl-5′-methyl-6′-oxo-5′,6′,8′,9′-tetrahydrospiro[cyclopropane-1,7′-pyrimido[4,5-b][1,4]diazepine]-2′-ylamino)-3-methoxy-N-(1-methylpiperidin-4-yl)benzamide]	1 to 2.51
COc1cc(C(=O)NC[C@H]2CCCNC2)ccc1Nc1ncc2c(n1)N(C1CCCC1)CCC(=O)N2C [Compound 64, (S)-4-(9-cyclopentyl-5-methyl-6-oxo-6,7,8,9-tetrahydro-5H-pyrimido[4,5-b][1,4]diazepin-2-ylamino)-3-methoxy-N-(piperidin-3-ylmethyl)benzamide]	> 10
COc1cc(C(=O)N[C@@H]2CCCNC2)ccc1Nc1ncc2c(n1)N(C1CCCCC1)CC(C)(C)C(=O)N2C [Compound 110, (R)-4-(9-cyclohexyl-5,7,7-trimethyl-6-oxo-6,7,8,9-tetrahydro-5H-pyrimido[4,5-b][1,4]diazepin-2-ylamino)-3-methoxy-N-(piperidin-3-yl)benzamide]	1 to 2.51
COc1cc(C(=O)N[C@H]2CCNC2)ccc1Nc1ncc2c(n1)N(C1CCCC1)CCC(=O)N2C [Compound 40, (S)-4-(9-cyclopentyl-5-methyl-6-oxo-6,7,8,9-tetrahydro-5H-pyrimido[4,5-b][1,4]diazepin-2-ylamino)-3-methoxy-N-(pyrrolidin-3yl)benzamide]	> 10
COc1cc(C(=O)N[C@H]2CCN(C)C2)ccc1Nc1ncc2c(n1)N(C1CCCC1)CCC(=O)N2C [Compound 52, (S)-4-(9-cyclopentyl-5-methyl-6-oxo-6,7,8,9-tetrahydro-5H-pyrimido[4,5-b][1,4]diazepin-2-ylamino)-3-methoxy-N-(1-methylpyrrolidin-3-yl)benzamide]	> 10
